The record followed here is US11013696B2, “Lipids and lipid compositions for the delivery of active agents” (Novartis AG, priority 2013, dated 2021).

Series [1] can be described thus: siRNA encapsulation in lipid nanoparticles (SYBR Gold). The conditions noted are these: Table 2; FVII siRNA in LNP with the cationic lipid. The format is physicochemical. The method, then: The lipid nanoparticles (LNPs) were formed by mixing equal volumes of lipids dissolved in alcohol with siRNA dissolved in a citrate buffer by an impinging jet process. The lipid solution contains a cationic lipid compound of the invention, a helper lipid (cholesterol), an optional neutral lipid (DSPC) and a PEG (PEG) lipid at a concentration of 8-16 mg/mL with a target of 12 mg/mL in an alcohol. The siRNA to total lipid ratio is approximately 0.05 (wt/wt). Where a LNP formulation contains four lipid components, the molar ratios of the lipids ranges from 20 to 70 mole percent for the cationic lipid with a target of 40-60, the mole percent of helper lipid ranges from 20 to 70 with a target of 30 to 50, the mole percent of neutral lipid ranges from 0-30, the mole percent of PEG lipid has a range from 1 to 6 with a target of 2 to 5. The concentration of siRNA solution ranges from 0.7 to 1.0 mg/mL with a target of 0.8 to 0.9 mg/mL in a sodium citrate: sodium chloride buffer pH 4-6, with a target of 4.5-5.5. The LNPs are formed by mixing equal volumes of lipid solution in ethanol with siRNA dissolved in a citrate buffer by an impinging jet process through a mixing device with ID ranging from 0.25 to 2.0 mm at a flow rate from 10 to 640 mL/min. The mixed LNP solution is held at room temperature for 0-24 hrs prior to a dilution step. The solution is then concentrated and diafiltered with suitable buffer by ultrafiltration or dialysis process using membranes with a MW cutoff from 30 to 500 KD. The final product is sterile filtered and stored at 4° C.
The lipid nanoparticles (LNPs) were formed by mixing equal volumes of lipids dissolved in alcohol with siRNA dissolved in a citrate buffer by an impinging jet process. The lipid solution contains a cationic lipid compound of the invention, a helper lipid (cholesterol), an optional neutral lipid (DSPC) and a stealth lipid (5010, S024, S027, or S031) at a concentration of 8-16 mg/mL with a target of 12 mg/mL in an alcohol. The siRNA to total lipid ratio is approximately 0.05 (wt/wt). Where a LNP formulation contains four lipid components, the molar ratios of the lipids ranges from 20 to 70 mole percent for the cationic lipid with a target of 40-60, the mole percent of helper lipid ranges from 20 to 70 with a target of 30 to 50, the mole percent of neutral lipid ranges from 0-30, the mole percent of PEG lipid has a range from 1 to 6 with a target of 2 to 5. The concentration of siRNA solution ranges from 0.7 to 1.0 mg/mL with a target of 0.8 to 0.9 mg/mL in a sodium citrate: sodium chloride buffer pH 4-6, with a target of 4.5-5.5. The LNPs are formed by mixing equal volumes of lipid solution in ethanol with siRNA dissolved in a citrate buffer by an impinging jet process through a mixing device with ID ranging from 0.25 to 2.0 mm at a flow rate from 10 to 640 mL/min. The mixed LNP solution is held at room temperature for 0-24 hrs prior to a dilution step. The solution is then concentrated and diafiltered with suitable buffer by ultrafiltration process using membranes with a MW cutoff from 30 to 500 KD. The final product is sterile filtered and stored at 4° C.
SYBR Gold flourescence reagent is used for the determination of siRNA encapsulation in the DLP's. DLP's with and without triton x-100 are used to determine the free siRNA and total siRNA amounts. DLP's samples with and without triton X-100 were excited at 485 nm and flourescence emission is measured at 530 nm. Encapsulation efficiency is calculated based on the following formula: Encapsulation efficiency:[([…])/(total siRNA concentration)]×100% Encapsulation Data

The nature of series [2]: Percent encapsulation of mRNA in lipid nanoparticles (Quant-iT Ribogreen). The format is physicochemical. The conditions noted are these: Table 2; leptin mRNA in LNP with the cationic lipid. The method, then:
All equipment and disposable supplies are certified free of RNase activity by the manufacturer or rendered RNase free by use of the RNaseZap reagent (LifeTechnologies). mRNA is encapsulated at a cationic lipid amine to mRNA phosphate (N:P) molar ratio of 4:1. Lipids (cationic lipid, DSPC, cholesterol and lipidated PEG or stealth lipid) are dissolved in ethanol. The molar ratios are 40:10:38:2, respectively. The mixture is sonicated briefly, then gently agitated for 5 minutes and then maintained at 37° C. until use. mRNA is exchanged into citrate buffer pH 5.8-6.0 by use of Amicon Ultra-15 centrifugal concentrators, and the final concentration is adjusted to 0.5 mg/ml and held at 37° C. until use. An equal volume of lipids in ethanol, mRNA in citrate buffer, and citrate buffer alone are drawn into disposable syringes. Tubing leading from syringes containing lipids and mRNA are attached to the T junction, and tubing leading from the syringe containing citrate buffer alone is paired with the tubing exiting the T-junction over a collection vessel containing a stir bar on an active stir plate. Syringes are placed in a syringe pump set to expel contents at a flow rate of 1 ml per minute.
The pump is activated, and the collected mRNA in lipid nanoparticles is transferred to SnakeSkin dialysis tubing (10,000 MWCO, Thermo Scientific). Material is dialyzed against RNAse- and pyrogen-free 1× phosphate buffered saline overnight at 4° C.
Percent encapsulation of mRNA in lipid nanoparticles is determined using the Quant-iT Ribogreen RNA Assay kit (Life Technologies). The LNP-mRNA suspension is assayed in buffer (mRNA outside the particle), and buffer plus Triton X-100 detergent (total mRNA). The difference calculated is the mRNA inside the particle. Prepare a 1000 ng/mL stock from the RNA provided in the kit and use this to generate a standard curve (0 ng/ml, 15.63-1000 ng/ml) in TE and TE+0.75% Triton X-100. Prepare LNP-mRNA samples in TE buffer and TE buffer +0.75% Triton X-100 with appropriate dilution so that reading is in the range of standard curve (400-2,000 fold). In a 384-well plate (Costar non-treated #3573) add 0.04 ml of standard (in duplicate) or sample (in triplicate) per well. Dilute Ribogreen reagent 240-fold in TE buffer and add 0.06 ml per well. Mix contents of wells and measure fluorescence (excitation=480 nm, emission=520 nm). Subtract background values (no RNA) from standard and test sample values and determine the concentrations of RNA in the samples using the standard curves. Determine the percent encapsulation of the sample by dividing the difference in concentrations between sample+triton and sample in buffer alone by the sample+triton concentration.

On to `CCCCCCCCCCCCC(CCOC(=O)CCC(COC(=O)CCCCCCC)COC(=O)CCCCCCC)OC(=O)OCCCN(CC)CC` (stereo not drawn) [Example 4, 2-(10-dodecyl-3-ethyl-8,14-dioxo-7,9,13-trioxa-3-azahexadecan-16-yl)propane-1,3-diyl dioctanoate], for which, in series [1], the “% encapsulation siRNA FVII” value is listed as 88.6%.

With `CCCCCCCCCCCCC(CCOC(=O)CCC(OCC(CC)CCCC)OCC(CC)CCCC)OC(=O)OCCCN(CC)CC` (stereo not drawn) [Example 12, 3-(((3-(diethylamino)propoxy)carbonyl)oxy)pentadecyl 4,4-bis((2-ethylhexyl)oxy)butanoate], the “% encapsulation siRNA FVII” value in series [1] is on record as 91.7%.

Regarding `CCCCCCCCCCCCC(CCOC(=O)CCCCCCC(OCCCC)OCCCC)OC(=O)OCCCN(CC)CC` (stereo not drawn) [Example 20, 3-(((3-(diethylamino)propoxy)carbonyl)oxy)pentadecyl 8,8-dibutoxyoctanoate], the “% encapsulation siRNA FVII” value in series [1] amounted to 76.7%.

Turning to `CCCCCCCCCCCCC(CCOC(=O)CC(CCCCCCCC)CCCCCCCC)OC(=O)OCCCN(C)C` (stereo not drawn) [Example 24, 3-(((3-(dimethylamino)propoxy)carbonyl)oxy)pentadecyl 3-octylundecanoate], in series [1], the “% encapsulation siRNA FVII” value turned out to be 86.8%.

Consider `CCCCCCCCCCCCC(CCOC(=O)C=C(CCCCCCCC)CCCCCCCC)OC(=O)OCCCN(C)C` (stereo not drawn) [Example 25, 3-(((3-(dimethylamino)propoxy)carbonyl)oxy)pentadecyl 3-octylundec-2-enoate], for which the “% encapsulation siRNA FVII” value in series [1] is given as 87.1%.

Regarding `CCCCCCCCCCCCC(CCOC(=O)CCCCC=C(CCCCCC)CCCCCC)OC(=O)OCCCN(C)C` (stereo not drawn) [Example 26, 3-(((3-(dimethylamino)propoxy)carbonyl)oxy)pentadecyl 7-hexyltridec-6-enoate], the “% encapsulation siRNA FVII” value in series [1] is 89.8%.

On to `CCCCCCCCCCCCC(CCOC(=O)CCCCCCCC(CCCCC)CCCCC)OC(=O)OCCCN(C)C` (stereo not drawn) [Example 27, 3-(((3-(dimethylamino)propoxy)carbonyl)oxy)pentadecyl 9-pentyltetradecanoate], for which the “% encapsulation siRNA FVII” value in series [1] was determined as 86.6%.

Take `CCCCC/C=C\C/C=C\CCCCCCCCC(CCOC(=O)CCCCC(OCCCCCCCC)OCCCCCCCC)OC(=O)OCCCN(CC)CC` (stereo not drawn) [Example 127, (12Z,15Z)-3-(((3-(diethylamino)propoxy)carbonyl)oxy)henicosa-12,15-dien-1-yl 6,6-bis(octyloxy)hexanoate]: the “% encapsulation mRNA Leptin” value in series [2] amounted to 96.7%.

Take `CCCCCCCCOC(CCCCC(=O)OCCC(CCCOC(=O)CCCCCCC)OC(=O)OCCCN(CC)CC)OCCCCCCCC` (stereo not drawn) [Example 128, 6-((6,6-bis(octyloxy)hexanoyl)oxy)-4-(((3-(diethylamino)propoxy)carbonyl)oxy)hexyl octanoate]: the “% encapsulation mRNA Leptin” value in series [2] turned out to be 86.2%.

As to `CCCCCCCCCCCCC(CCCC(=O)OCCCC(OCCCCCCCC)OCCCCCCCC)OC(=O)OCCCN(CC)CC` (stereo not drawn) [Example 129, 4,4-bis(octyloxy)butyl 5-(((3-(diethylamino)propoxy)carbonyl)oxy)heptadecanoate], in series [2], the “% encapsulation mRNA Leptin” value is on record as 96.8%.

As to `CCCCCCCCCCCCC(CCOC(=O)OCCCC(OCCCCCCCC)OCCCCCCCC)OC(=O)OCCCN(CC)CC` (stereo not drawn) [Example 130, 4,4-bis(octyloxy)butyl (3-(diethylamino)propyl) pentadecane-1,3-diyl dicarbonate], in series [2], the “% encapsulation mRNA Leptin” value came out at 97.8%.

For `CCCCCCCCCCCCC(CCCOC(=O)CCCCC(COC(=O)CCCCCCC)COC(=O)CCCCCCC)OC(=O)C1(C)CCN(C)C1` (stereo not drawn) [Example 132, 2-(5-((4-((1,3-dimethylpyrrolidine-3-carbonyl)oxy)hexadecyl)oxy)-5-oxopentyl)propane-1,3-diyl dioctanoate], the “% encapsulation mRNA Leptin” value in series [2] is reported as 95.5%.

With `CCCCCCCCCCCCC(CCCOC(=O)CCCCC(COC(=O)CCCCCCC)COC(=O)CCCCCCC)OC(=O)O[C@H]1CCN(C)C1` (stereo partly drawn) [Example 134, 2-(5-((4-(((((S)-1-methylpyrrolidin-3-yl)oxy)carbonyl)oxy)hexadecyl)oxy)-5-oxopentyl)propane-1,3-diyl dioctanoate], the “% encapsulation mRNA Leptin” value in series [2] was 96.6%.

For `CCCCCCCCCCCCC(CCCOC(=O)CCCCC(COC(=O)CCCCCCC)COC(=O)CCCCCCC)OC(=O)O[C@@H]1CCN(C)C1` (stereo partly drawn) [Example 135, 2-(5-((4-(((((R)-1-methylpyrrolidin-3-yl)oxy)carbonyl)oxy)hexadecyl)oxy)-5-oxopentyl)propane-1,3-diyl dioctanoate], in series [2], the “% encapsulation mRNA Leptin” value came out at 96.2%.

As for `CCCCCCCCCCCCC(CCCOC(=O)CCCCC(COC(=O)CCCCCCC)COC(=O)CCCCCCC)OC(=O)OC1CCN(C)CC1` (stereo not drawn) [Example 137, 2-(5-((4-((((1-methylpiperidin-4-yl)oxy)carbonyl)oxy)hexadecyl)oxy)-5-oxopentyl)propane-1,3-diyl dioctanoate], the “% encapsulation mRNA Leptin” value in series [2] was found to be 98.1%.

With `CCCCCCCCCCCCC(CCCOC(=O)CCCCC(COC(=O)CCCCCCC)COC(=O)CCCCCCC)OC(=O)OCCCN(CC)CC` (stereo not drawn) [Example 138, 2-(10-dodecyl-3-ethyl-8,15-dioxo-7,9,14-trioxa-3-azanonadecan-19-yl)propane-1,3-diyl dioctanoate], in series [2], the “% encapsulation mRNA Leptin” value came out at 92.9%.

Take `CCCCCCCCCCCCC(CCOC(=O)CCCCC(COC(=O)CCCCCCC)COC(=O)CCCCCCC)OC(=O)OCCCN1CCCCC1` (stereo not drawn) [Example 141, 2-(5-oxo-5-((3-(((3-(piperidin-1-yl)propoxy)carbonyl)oxy)pentadecyl)oxy)pentyl)propane-1,3-diyl dioctanoate]: the “% encapsulation mRNA Leptin” value in series [2] is reported as 94.9%.

Take `CCCCCCCCCCCCC(CCOC(=O)OCCCN(CC)CC)OC(=O)CCCCC(COC(=O)CCCCCCC)COC(=O)CCCCCCC` (stereo not drawn) [Example 142, 2-(12-dodecyl-3-ethyl-8,14-dioxo-7,9,13-trioxa-3-azaoctadecan-18-yl)propane-1,3-diyl dioctanoate]: in series [2], the “% encapsulation mRNA Leptin” value turned out to be 92.5%.
